Source: EP4635976A1, “CONSTANT UNI-TABS” (Medigene Immunotherapies GmbH, priority 2024, dated 2025)
Marks after values point to notes of the source that are not given here.

Experiments:
Experiment in all cases: Peptide mismatched library: peptide-loaded T2 cells co-cultured with TCR-transduced CD8+ T cells, IFN-γ-ELISA
Format in all cases: cell-based
[1] = test system: WT NY-ESO_PD1-41 BB TCR ("SWAT"); settings: for IFN-γ [pg/ml production] MIT 045 SWAT: donor MIT045; for IFN-γ [pg/ml production] MIT 045 SWAT / IFN-γ [pg/ml production] MIT038 SWAT: CD8^+ T cells transduced with WT NY-ESO_PD1-41 BB TCR (SWAT), mismatch peptide loaded on T2 cells, IFNg-ELISA; for IFN-γ [pg/ml production] MIT038 SWAT: donor MIT038
Excerpt: (§1) The aim was to further compare the WT NY-ESO-1 with two UNI-TABS NY-ESO-TCRs (Position A199 in loop 1 and A245 in loop 2) in combination with PD1_41 BB regarding allogeneic HLA cross-recognition and HLA fine typing.
(§2) To test a peptide mismatched library, 336 different mismatched peptides, differing from 1-4 amino acids from the wild-type peptide recognized by the WT TCR were loaded on T2 cells and co-cultured with CD8^+ T cell transduced with either wt NY-ESO_PD1-41 BB TCR, NY-ESO-UniTABS-A199_PD1-41 BB TCR or NY-ESO-UniTABS-A245_PD1-41 BB TCR. The culture supernatant was collected, and an IFN-γ-ELISA performed.
(§3) The sequences and the numbers of the respective mismatch peptides are listed. The cells contain the values of IFN-γ [pg/ml production]. BetaA199: UniTAB epitope set forth in SEQ ID NO: 47 inserted in loop1 at position A199 flanked by GSG linker sequences, BetaA245: UniTAB epitope set forth in SEQ ID NO: 47 inserted in loop 2 at position A245 flanked by GSG linker sequences. Table 2: Mismatched peptides recognized by NY-ESO WT and NY-ESO variants

[2] = test system: NY-ESO-A199_PD1-41 BB TCR (UniTAB1); settings: CD8^+ T cells transduced with NY-ESO-A199_PD1-41 BB TCR (UniTAB1), mismatch peptide loaded on T2 cells, IFNg-ELISA; for IFN-γ [pg/ml production] MIT038 UniTABs-A199: donor MIT038
Excerpt: as §1, §2, §3

[3] = test system: NY-ESO-A245_PD1-41 BB TCR (UniTAB2); settings: donor MIT045; CD8^+ T cells transduced with NY-ESO-A245_PD1-41 BB TCR (UniTAB2); mismatch peptide loaded on T2 cells; IFNg-ELISA
Excerpt: as §1, §2, §3

| Sequence | recognition of mismatched peptide (IFN-γ response) ([1]; WT TCR-PD1-41BB transduced T cells, two donors) | IFN-γ [pg/ml production] MIT 045 SWAT [1] | IFN-γ [pg/ml production] MIT038 SWAT [1] | IFN-γ [pg/ml production] MIT038 UniTABs-A199 [2] | IFN-γ [pg/ml production] MIT 045 UniTABs-A199 ([2]; donor MIT045) | IFN-γ [pg/ml production] MIT 045 UniTABs-A245 [3] |
| --- | --- | --- | --- | --- | --- | --- |
| ICLQWITQC [compound 8] | only recognized by WT TCR transduced T cells of one donor | 24.7**** pg/ml | – | – | – | – |
| NLLFWICGC [compound 221] | – | 100.6* pg/ml | 788.9* pg/ml | 900.2* pg/ml | 889.3* pg/ml | 0.0* pg/ml |
| SLLCYIKHC [compound 239] | – | 32.1** pg/ml | 228.6** pg/ml | 312.2** pg/ml | – | – |
